# According to patent publication US10913714B2, “Pyrrole sulfonyl derivative, preparation method and medical use thereof” (JIANGSU CAREPHAR PHARMACEUTICAL CO., LTD, priority 2015, dated 2021):
# Where a name gives a salt, the structure may show the parent alone. Marks after values point to notes of the source that are not given here.
# Tests used:
# [1] = Acute toxicity test, single gavage in rats; type: in vivo; conditions: SD rat, gavage once, observed 14 days
# Method: Test content: single administration dosage: 2000 mg/kg, 600 mg/kg; administration by gavage: once; volume: 10 ml/kg; observing for 14 days for the rat's behavior and weight each day.
# Experimental grouping: black group, Group of 600 mg/kg, Group of 2000 mg/kg; 4 rats each group; half male and half female.
# hERG potassium channel = target: T1, hERG potassium channel (Homo sapiens, UniProt Q12809); assay: Whole cell patch clamp, inhibition of hERG tail current; type: cell-based; conditions: for IC50: human, hERG cells (host cell line not named), pH 7.4, whole cell patch clamp, logistic fit; for Inhibition ratio of max. test concentration (hERG current): max. test concentration 100 μM
# T1 construct: expressed in transfected cells
# Method: Test Case 2: Studies on the Effect of Compounds EXP 1, TAK-438 and EXP 12 on hERG Potassium Channel Testing System 1) Cell culture: the hERG cell is cultured in a routine way, which is subcultured in a DMEM containing 10% of fetal calf serum and 250 μg/ml of G418. 2) Fluid preparation: the composition of the extracellular fluid used in the experiment of whole cell patch clamp comprises (mM): NaCl 145, MgCl21, KCl 4, Glucose 10, HEPES 10 and CaCl22; adjusting the pH value of NaOH to 7.4 and adjusting the value of osmotic pressure to 300 mOsm with sucrose. The composition of the intracellular fluid comprises (mM):KCl 140; MgCl 21; EGTA 5; HEPES 10 and Na2ATP 4; adjusting the pH value of KOH to 7.2 and adjusting the value of osmotic pressure to 290 mOsm with sucrose.
# Main composition of the extracellular and intracellular fluid
# Test Procedure 1) Electrophysiological recording: taking out one culture dish for each test; cleaning it with the extracellular fluid twice and placing it on the inverted microscope stage. The experiment of whole cell patch clamp is conducted at ambient temperature; the resistance at the microelectrode tip of the used borosilicate glass is 3-5 MQ. 2) Voltage stimulus plan and current record: clamping down the membrane potential to −80 mV under the whole-cell recording mode; giving +50 mV of depolarized voltage stimulus to the cell every 30 s and lasting for 2 s, then repolarizing it to −50 mV and lasting for 3 s, thus, the tail current of hERG can be extracted. Giving 50 ms, −50 mV repolarized voltage to the cell before depolarized voltage stimulus; the current recorded at such voltage is as the base line for calculating the tail current of hERG. Only the cells meet the recording standard can be used in the test of the compounds to be tested. The hERG tail current should be recorded stably at last for 3 min in the extracellular fluid before the compound is added. After perfusion of drugs, it can be regarded that the drug effect reaches a steady state if the change of the amplitude of hERG tail current is less than 5%. If the current fails to reach a steady state in 6 min, the test should also be terminated. 3) Testing standard: the membrane resistance in the experiment should be more than 1,000 MQ. The initial current should be more than 300 pA. The series resistance should be less than 12 MQ after the whole-cell recording mode is constructed. The leakage current is less than 10% of the ionic channel current (taking −80 pA as the peak value). Data Analysis
# Using Clampex 10.2 to record the original data and saving the data in the format of *abf. Using pCLAMP 10.1 to conduct data collection and analysis. Selecting 4-5 sweeps when the current is in a steady state before the compound is added; calculating the average peak value to serve as the contrasted current amplitude. Selecting 4-5 sweeps when the current is in a steady state after the compound is added; calculating the average peak value to serve as the residual amplitude of the inhibited current. The inhibition ratio of the compound to be tested to hERG current is calculated as per the equation as: % inhibition ratio={1−(current residual amplitude)/(contrasted current amplitude)}*100
# After the inhibition ratio (average value±standard deviation) of the compound to be tested to the hERG current of different concentrations is obtained through the above computing method, the data with logistic equation should be fitted to obtain the value of IC50.
# [2] = tested on: gastric acid secretion induced by histamine; assay: Gastric acid secretion induced by histamine in pylorus-ligated rats; type: in vivo; conditions: SD rat; for Total acid content: 2 mg/kg by gavage 1 h before histamine, total acid of 3 h; for Acid inhibiting rate %: 2 mg/kg by gavage, compared with model control
# Description: Test Case 3: Studies on the Effect of EXP 1, TAK-438 and EXP 14 on Gastric Acid Secretion Induced by Histamine Experimental Materials 1) Animals
# SD rat, class SPF, male, 180-220 g; provided by Zhejiang Experimental Animal Center; production permit no.: SCXK (Z) 2014-0001.
# Compound EXP 1, dissolved with a small amount of acetic acid (about 1.10N EXP 1), 0.9% sodium chloride solution to a clear liquid with needed concentration before use.
# >Compound TAK-438, dissolved with 0.9% sodium chloride solution to a clear liquid with needed concentration before use.
# Compound EXP 14, dissolved with a small amount of acetic acid (about 1.10N EXP 14), 0.9% sodium chloride solution to a clear liquid with needed concentration before use.
# Fetching 60 SD rats of class SPF with a weight of 180-220 g; dividing the rats into 5 groups as per weights randomly, including Group EXP 1 (2 mg/kg), Group TAK-438 (2 mg/kg, as per free alkali), Group EXP 14 (2 mg/kg), Group negative control (normal saline of equal volume) and Group model control (normal saline of equal volume); 12 rats per group. Absolute diet for 24 h, water is allowed. After 24 h, administrating drugs to the tested compound groups A, B and C by gavage with a volume of 1 ml/100 g; each group is administered once; the negative control and model negative control groups are administrated by gavage with normal saline of equal volume. Narcotizing the rat with 300 mg/kg of chloral hydrate (1 ml/100 g) and fixing it onto the rat board; cutting to open the abdominal wall along the medioventral line from the mucronate cartilage with an incision of 2-3 cm; slightly pushing the left costal margin upward to expose the stomach in the incision. Ligaturing the pylorus thereunder (leave alone the adjacent blood vessels) and then suturing the abdominal incision. Giving histamine dihydrochloride (30 mg/10 m/kg) hypodermically to the rat 1 h after the tested compound or normal saline are administrated. Choking the rat to death with excessive CO2 3 h after the histamine is given; taking out the stomach and collecting the gastric contents for centrifugation at 3000 rpm/min; adjusting the PH value of the acid fluid to 7.0 with 0.1 mol/L of NaOH titration and then calculating the total acid content of the 3 h. Refer to Table 3 for results.
# T1 sequence (Q12809 whole entry): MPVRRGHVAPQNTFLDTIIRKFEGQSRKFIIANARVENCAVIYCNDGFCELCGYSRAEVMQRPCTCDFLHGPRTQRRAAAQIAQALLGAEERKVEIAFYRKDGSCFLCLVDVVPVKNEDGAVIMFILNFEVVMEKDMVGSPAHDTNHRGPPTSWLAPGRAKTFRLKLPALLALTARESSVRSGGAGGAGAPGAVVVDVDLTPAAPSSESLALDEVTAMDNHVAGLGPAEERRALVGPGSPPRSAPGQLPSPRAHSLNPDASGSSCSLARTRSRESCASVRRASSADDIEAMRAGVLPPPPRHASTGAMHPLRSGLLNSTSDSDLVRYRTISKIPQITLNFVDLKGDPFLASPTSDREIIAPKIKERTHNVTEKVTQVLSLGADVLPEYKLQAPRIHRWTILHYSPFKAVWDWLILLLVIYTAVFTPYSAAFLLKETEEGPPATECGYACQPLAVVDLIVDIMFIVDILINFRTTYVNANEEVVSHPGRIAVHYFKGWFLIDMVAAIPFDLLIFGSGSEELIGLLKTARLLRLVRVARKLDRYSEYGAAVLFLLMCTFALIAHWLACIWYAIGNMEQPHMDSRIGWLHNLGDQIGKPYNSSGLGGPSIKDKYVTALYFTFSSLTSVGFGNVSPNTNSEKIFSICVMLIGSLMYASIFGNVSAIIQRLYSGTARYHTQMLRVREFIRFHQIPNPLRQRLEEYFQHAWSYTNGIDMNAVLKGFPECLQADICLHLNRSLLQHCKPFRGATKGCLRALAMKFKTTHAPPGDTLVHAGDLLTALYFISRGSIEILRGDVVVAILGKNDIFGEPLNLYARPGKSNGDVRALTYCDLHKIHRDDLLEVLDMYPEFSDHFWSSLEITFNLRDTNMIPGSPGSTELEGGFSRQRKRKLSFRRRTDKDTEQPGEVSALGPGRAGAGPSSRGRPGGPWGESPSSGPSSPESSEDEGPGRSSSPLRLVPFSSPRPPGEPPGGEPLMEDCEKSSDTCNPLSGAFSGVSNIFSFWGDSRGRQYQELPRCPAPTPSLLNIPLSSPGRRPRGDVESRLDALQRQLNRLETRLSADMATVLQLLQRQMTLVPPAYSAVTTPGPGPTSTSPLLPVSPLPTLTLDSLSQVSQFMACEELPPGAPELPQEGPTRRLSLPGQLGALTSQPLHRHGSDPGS
SMILES,Impact on the rat's weight ([1]; 600 mg/kg),Death after single oral dose ([1]; 2000 mg/kg),IC50 (hERG potassium channel) [µM],Inhibition ratio of max. test concentration (hERG current) (hERG potassium channel) [%],Total acid content [2],Acid inhibiting rate % [2] [%],Death after single oral dose ([1]; 600 mg/kg)
"CNCc1cc(-c2ccccc2F)n(S(=O)(=O)c2cccnc2)c1 [TAK-438, 5-(2-fluorophenyl)-N-methyl-1-(3-pyridylsulfonyl)-1H-pyrrole-3-methamine fumarate]",inhibition of weight gain,all died,15.9,88.23 ± 3.18,0.52 ± 0.10** 10^−4 mol,52.3,
"CNCc1cc(-c2ccccc2F)n(S(=O)(=O)c2cccc(OCCCOC)c2)c1 [EXP 1, 1-(5-(2-fluorobenzene)-1-((3-(3-methoxypropoxy)phenyl)sulfonyl)-1H-pyrrole-3-yl)-N-methyl methylamine]",not obvious,no death,18.7,86.21 ± 1.67,0.49 ± 0.12** 10^−4 mol,55.4,no death
